Read-outs that look alike come from different tables or passages of the source.
Assays:
[1] = biological target: T1, eqBChE (BChE from equine serum) (Equus caballus, UniProt P81908); assay: biochemical
T1 construct: BChE (E.C. 3.1.1.8, from equine serum); purchased Sigma-Aldrich; host or cells: equine serum
Description: (§1) AChE (E.C. 3.1.1.7, Type V-S, lyophilized powder, from electric eel, 1000 unit), BChE (E.C. 3.1.1.8, from equine serum), ATCI, BTCI, and DTNB were purchased from Sigma-Aldrich. To the experimental group in a 96-well plate, 10 μl AChE or BChE (final concentration is 0.04 U/ml), 25 μl tested compounds, and 65 μl PBS buffer was sequentially added. For the control group, all components were in accordance with those in the experimental group, except that 25 μl tested compounds were replaced by equal volume of PBS. For the blank group, only 100 μl PBS was added. […] The calculation formula is: inhibition rate% = (ODcontrol-ODtest)/(ODcontrol-ODblank)*100.
3. Screen of the most appropriate incubation time for compounds and
In order to find the most appropriate incubation time for compounds and enzyme, to verify whether the incubation time of 25 min is appropriate, and to further improve […]
time, made the inhibition rate-incubation time curves (Figure S1), and calculated the IC50 values of these compounds under different incubation time (Table S1).

[2] = biological target: T2, eeAChE (AChE from electric eel) (Electrophorus electricus, UniProt O42275); assay: biochemical; details: incubation time 25 min; mean ± SD, at least three independent experiments
T2 construct: AChE (E.C. 3.1.1.7, Type V-S, lyophilized powder, from electric eel, 1000 unit); purchased Sigma-Aldrich Type V-S; host or cells: electric eel
Description: as §1

[3] = biological target: T3, eqBChE (Equus caballus, UniProt P81908); assay: Inhibition kinetics of butyrylcholinesterase (reversibility, Lineweaver-Burk, Ki replot); format: biochemical
T3 construct: BChE (E.C. 3.1.1.8, from equine serum); purchased Sigma-Aldrich; host or cells: equine serum
Text: According to the type of interaction between inhibitor and enzyme, there are three reaction types including the reversible, irreversible, and pseudo-irreversible reactions in the cholinesterase catalyzed reaction, and each type has its representative characteristics. By studying the reaction rate changes in enzymatic reactions in the presence of inhibitors, the mechanism of action of inhibitors on enzymes, viz the inhibition type could be determined, which is of great significance for further structural modification and the discovery of compounds with better enzyme inhibitory activity. To reveal the interaction between synthesized inhibitors and eq BChE, we initially chose compound 3p as an example and studied the reversibility of enzymatic reaction in the presence of inhibitor. When the final concentration of substrate BTCI was fixed at 0.2 mM, we deduced from Figure 2A that both compound 3p increased the enzymatic reaction rate to varying degrees with the increase of enzyme concentration. When both the concentrations of eq BChE and BTCI remained constant, the rate of the enzymatic reaction decreased with the increase of inhibitor concentration.
In the process of reversible inhibition reaction, inhibitors can be divided into competitive, non-competitive, mixed competitive, and anti-competitive inhibitors according to the effect of inhibitors and substrate on enzyme ([Liu et al., 2022]). […] For compound 3p, the Km values increased while the Vmax values decreased compared with those in the absence of inhibitors, which was not in accordance with the characteristics of competitive, non-competitive, and anti-competitive inhibitors. Therefore, non-competitive in combination with competitive inhibition and/or non-competitive in combination with anti-competitive inhibition maybe existed in the reaction systems of compound 3p with enzyme (Figure 2B). […] However, the binding affinity of compounds 3p with the free enzyme or the substrate-enzyme complex was different. […]

[4] = incubation time 25 min, mean ± SD, at least three independent experiments, read-out: IC50 eqBChE
[5] = incubation time 5 min, read-out: IC50 eqBChE under different incubation time
[6] = incubation time 10 min, read-out: IC50 eqBChE under different incubation time
[7] = incubation time 15 min, read-out: IC50 eqBChE under different incubation time
[8] = incubation time 45 min, read-out: IC50 eqBChE under different incubation time
[9] = incubation time 65 min, read-out: IC50 eqBChE under different incubation time
[10] = incubation time 85 min, read-out: IC50 eqBChE under different incubation time

T1 sequence (P81908 whole entry): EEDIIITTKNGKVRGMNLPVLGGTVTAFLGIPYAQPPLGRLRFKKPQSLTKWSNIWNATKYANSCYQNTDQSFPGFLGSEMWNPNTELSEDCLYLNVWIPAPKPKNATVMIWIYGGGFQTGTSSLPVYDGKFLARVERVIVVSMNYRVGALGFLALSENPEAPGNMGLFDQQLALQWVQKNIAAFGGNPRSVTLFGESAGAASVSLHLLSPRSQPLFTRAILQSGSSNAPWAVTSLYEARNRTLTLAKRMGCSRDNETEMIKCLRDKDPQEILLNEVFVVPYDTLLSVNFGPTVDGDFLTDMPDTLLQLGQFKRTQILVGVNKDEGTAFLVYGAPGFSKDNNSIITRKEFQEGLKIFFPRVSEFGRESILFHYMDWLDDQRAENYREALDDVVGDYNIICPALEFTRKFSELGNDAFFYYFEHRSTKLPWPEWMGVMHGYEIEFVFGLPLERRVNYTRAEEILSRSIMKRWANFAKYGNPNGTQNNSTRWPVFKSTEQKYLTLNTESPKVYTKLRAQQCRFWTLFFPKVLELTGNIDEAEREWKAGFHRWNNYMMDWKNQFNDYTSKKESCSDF
T3 sequence (P81908 whole entry): as above
T2 sequence (O42275 24-633): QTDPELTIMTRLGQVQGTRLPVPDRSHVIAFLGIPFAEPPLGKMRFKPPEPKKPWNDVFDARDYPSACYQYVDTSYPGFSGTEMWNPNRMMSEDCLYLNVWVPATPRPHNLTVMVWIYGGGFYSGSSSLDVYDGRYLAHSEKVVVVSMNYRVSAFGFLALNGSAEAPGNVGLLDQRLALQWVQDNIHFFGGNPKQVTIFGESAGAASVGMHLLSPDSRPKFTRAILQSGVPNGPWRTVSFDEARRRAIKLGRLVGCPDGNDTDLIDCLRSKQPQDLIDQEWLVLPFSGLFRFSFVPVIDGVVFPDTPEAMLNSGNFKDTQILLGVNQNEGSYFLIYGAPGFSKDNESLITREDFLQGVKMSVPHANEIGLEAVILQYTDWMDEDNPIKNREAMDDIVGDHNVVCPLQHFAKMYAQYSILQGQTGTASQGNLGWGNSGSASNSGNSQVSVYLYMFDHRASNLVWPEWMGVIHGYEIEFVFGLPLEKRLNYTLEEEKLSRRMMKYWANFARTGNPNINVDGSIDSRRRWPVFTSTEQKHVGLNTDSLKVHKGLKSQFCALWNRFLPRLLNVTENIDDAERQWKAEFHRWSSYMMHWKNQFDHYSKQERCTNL

| Structure (SMILES) | IC50 [1, 4] | IC50 [2] | also measured |
| --- | --- | --- | --- |
| Cc1ccccc1-n1cccc1 [Compound 3a] | > 50 µM | > 50 µM | – |
| Clc1ccccc1-n1cccc1 [Compound 3b] | > 50 µM | > 50 µM | – |
| Cc1cccc(-n2cccc2)c1 [Compound 3c] | > 50 µM | > 50 µM | – |
| Brc1cccc(-n2cccc2)c1 [Compound 3d] | > 50 µM | > 50 µM | – |
| CC(C)c1ccc(-n2cccc2)cc1 [Compound 3e] | > 50 µM | > 50 µM | – |
| CSc1ccc(-n2cccc2)cc1 [Compound 3f] | > 50 µM | > 50 µM | – |
| Brc1ccc(-n2cccc2)cc1 [Compound 3g] | > 50 µM | > 50 µM | – |
| COC(=O)c1ccc(-n2cccc2)cc1 [Compound 3h] | > 50 µM | > 50 µM | – |
| Cc1cccc(C)c1-n1cccc1 [Compound 3i] | > 50 µM | > 50 µM | – |
| c1ccc(-n2cccc2)nc1 [Compound 3j] | > 50 µM | > 50 µM | – |
| Cc1cc(-n2cccc2)no1 [Compound 3k] | > 50 µM | > 50 µM | – |
| c1ccc2nc(-n3cccc3)cnc2c1 [Compound 3l] | > 50 µM | > 50 µM | – |
| c1ccc(Cc2ccn(-c3ccccc3)c2)cc1 [Compound 3m] | > 50 µM | > 50 µM | – |
| c1ccc(-c2ccn(-c3ccccc3)c2)cc1 [Compound 3n] | > 50 µM | > 50 µM | – |
| COc1ccccc1-c1ccn(-c2ccccc2)c1 [Compound 3o] | 5.37 ± 0.36 µM | > 50 µM | IC50 [1, 5]: 4.8 ± 0.38 µM; IC50 [1, 6]: 5.06 ± 1.2 µM; IC50 [1, 7]: 6.87 ± 0.6 µM; IC50 [1, 8]: 6.67 ± 0.61 µM; IC50 [1, 9]: 6.83 ± 0.24 µM; IC50 [1, 10]: 7.63 ± 0.77 µM |
| Clc1ccccc1-c1ccn(-c2ccccc2)c1 [Compound 3p] | 1.71 ± 0.087 µM | > 50 µM | IC50 [1, 5]: 0.6 ± 0.1 µM; IC50 [1, 6]: 0.48 ± 0.24 µM; IC50 [1, 7]: 1.95 ± 0.13 µM; IC50 [1, 8]: 2.4 ± 0.11 µM; IC50 [1, 9]: 3.27 ± 0.49 µM; IC50 [1, 10]: 3.2 ± 0.092 µM; Inhibition mode ([3]; Lineweaver-Burk plots): mixed competitive inhibition; Reversibility of inhibition ([3]; rate vs. enzyme concentration, BTCI 0.2 mM): reversible; Ki ([3]; replot of Lineweaver-Burk slopes vs. inhibitor concentration): 0.281 µM |
| COc1cccc(-c2ccn(-c3ccccc3)c2)c1 [Compound 3q] | > 50 µM | > 50 µM | – |
| FC(F)(F)c1cccc(-c2ccn(-c3ccccc3)c2)c1 [Compound 3r] | > 50 µM | > 50 µM | – |
| c1ccc(-c2ccc(-c3ccn(-c4ccccc4)c3)cc2)cc1 [Compound 3s] | 3.76 ± 0.25 µM | > 50 µM | IC50 [1, 5]: 5.87 ± 0.23 µM; IC50 [1, 6]: 5.95 ± 0.3 µM; IC50 [1, 7]: 6.05 ± 0.65 µM; IC50 [1, 8]: 4.41 ± 0.15 µM; IC50 [1, 9]: 4.21 ± 0.075 µM; IC50 [1, 10]: 4.38 ± 0.18 µM |
